Earlier results, collected in patent US9687554B2, “Finasteride and minoxidil polymeric nanoparticle its process of preparation, aqueous suspension containing the same, pharmaceutical composition, and its use” (Biolab Sanus Farmaceutica Ltda., priority 2012, dated 2017).

Test system: men aged 18 to 41 years
Conditions: 1 mg daily, end of five years, 1553 men; placebo 75%

## CC(C)(C)NC(=O)[C@H]1CC[C@H]2[C@@H]3CC[C@H]4NC(=O)C=C[C@]4(C)[C@H]3CC[C@]12C [finasteride]
  Patients who developed baldness: 10%
